Assay results: patent US7563791B2, “Pyrrolotriazine derivatives useful for treating hyper-proliferative disorders and diseases associated with angiogenesis” (Bayer Pharmaceuticals Corporation, priority 2004, dated 2009)

Tests used:
Format in all cases: cell-based
HCT116 cells = experiment: Tumor cell proliferation (Alamar Blue), HCT116; details: Homo sapiens, HCT-116, 72 h
Experimental: (§1) Human tumor cells (e.g., HCT116 or MDA-MB-231 cells), are seeded in a Costar 96-well plate at 3.0×10^3 cells/well and grown in 150 μl of RPMI complete media (Invitrogen Corporation, Grand Island, N.Y.) containing 10% fetal bovine serum (Hyclone, Logan, Utah) at 37° C. for 16 h in an incubator with 5% CO2. To each well, 50 μl of additional growth media containing 40 μM to 18 nM concentrations of compound with 0.4% DMSO is added. Cells are grown for another 72 h at 37° C. with 5% CO2. 20 μl of Alamar Blue (Trek Diagnostic Systems, Inc., Cleveland, Ohio) reagent is added to each well and incubated for 3 h at 37° C. Plates are read in a SpectraMax Gemini (Molecular Devices, Calif.) with 544 nm excitation and 590 nm emission wavelength. IC50 values are determined by linear regression analysis of log drug concentration versus percent inhibition.

MDA-MB-231 cells = experiment: Tumor cell proliferation (Alamar Blue), MDA-MB-231; details: Homo sapiens, MDA-MB-231, 72 h
Experimental: as §1

[1] = system: VEGF stimulated Phospho-ERK in HUVEC; experiment: Growth factor stimulated p-ERK assay in HUVECs (VEGF stimulation, ERK1/2 Bioplex); details: Homo sapiens, compound 2 hrs, then 50 ng/ml VEGF 10 min; for inhibition at 0.1 µM: @ 100 nM
Experimental: Growth Factor Stimulated p-ERK assay in HUVECs
Exponentially growing human endothelial HUVECs cells (human umbilical vein endothelial cells, cat# CC-2517, Cambrex, Walkersville, Md.) were seeded at twenty five thousand cells/well in 96 well plates in EBM-2 MV medium with growth factors (cat# CC-3202, Cambrex) and grown at 37° C. in 5% CO2. Sixteen hours post-plating, the cells were changed to serum-free medium (RPMI 1640 containing 0.1% BSA (bovine serum albumin) and compounds were added at different concentrations for 2 hrs, after which the cells were stimulated for 10 min with 50 ng/ml of either VEGF (vascular endothelial growth factor, Protein Sciences, Meriden, Conn.) or bFGF (basic fibroblast growth factor cat# PHG0026, Biosource International, Camarillo, Calif.). The rest of the assay was performed per manufacturer indications for the ERK½ Bioplex assay (cat#171-304004, Bio-Rad, Hercules, Calif.). After removing culture medium by aspiration, the cells were quickly rinsed with 100 μl of cell wash buffer A to stop treatment reaction. Eighty microliters of cell lysis buffer were then immediately added to each well of the 96 well plate which was put on ice. Cells in each well were lysed by pipetting up and down 5 times with a multi-channel pipet. The plate was then agitated on a microtiter plate shaker at 300 rpm for 20 min at 4° C. Cellular debris were pelleted by centrifugation at 4500 g for 15 min at 4° C. and the supernatant was collected. Forty five microliters of supernatant was diluted with an equal volume of Bio-Plex phosphoprotein assay Buffer B, The coupled and color coated beads were added into a 96 well filter plate, and the prepared lysates were added. The beads and lysate mixture was incubated at room temperature for 15-18 hrs. The following day, the plate was vacuum-filtered and then washed 3×. Twenty-five microliters of detection antibody solution were added to each well and the plate was then incubated for 30 min at room temperature. The plate was then vaccum-filtered and washed as described previously. Fifty microliters of streptavidin-PE solution was added to each well, the plate was incubated for 10 min at room temperature and then was then vaccum-filtered and washed as described above. One hundred twenty-five microliters of resuspension buffer was added to each well and data were acquired on the Luminex 100 instrument (Bio-Rad).

| Compound | IC50 (MDA-MB-231 cells; bounds given in μM) [µM] | IC50 (HCT116 cells; bounds given in μM) [µM] | inhibition at 0.1 µM [1] [%] | further results |
| --- | --- | --- | --- | --- |
| CNC(=O)c1cn2ncnc(N)c2c1-c1ccc(NC(=O)Nc2ccc(F)c(C(F)(F)F)c2)cc1 [Example 74, 4-amino-5-{4-[({[4-fluoro-3-(trifluoromethyl)phenyl]amino}carbonyl)amino]phenyl}-N-methylpyrrolo[2,1-f][1,2,4]triazine-6-carboxamide] | 1.5 to 5 | 1.5 to 5 | – | – |
| CNC(=O)c1cn2ncnc(N)c2c1-c1ccc(NC(=O)Nc2cc(C(C)(C)C)ccn2)cc1 [Example 73, 4-amino-5-[4-({[(4-tert-butylpyridin-2-yl)amino]carbonyl}amino)phenyl]-N-methylpyrrolo[2,1-f][1,2,4]triazine-6-carboxamide] | 1.5 to 5 | 1.5 to 5 | – | – |
| N#Cc1cn2ncnc(N)c2c1-c1ccc(NC(=O)Nc2ccnc(C(F)(F)F)c2)cc1 [Example 153, N-[4-(4-amino-6-cyanopyrrolo[2,1-f][1,2,4]triazin-5-yl)phenyl]-N′-[2-(trifluoromethyl)pyridin-4-yl]urea] | 5 to 10 | 5 to 10 | – | – |
| Cn1nc(C(C)(C)C)cc1NC(=O)Nc1ccc(-c2c(C(=O)NCC(F)(F)F)cn3ncnc(N)c23)cc1 [Example 94, 4-amino-5-[4-({[(3-tert-butyl-1-methyl-1H-pyrazol-5-yl)amino]carbonyl}amino)phenyl]-N-(2,2,2-trifluoroethyl)pyrrolo[2,1-f][1,2,4]triazine-6-carboxamide] | 1.5 to 5 | 5 to 10 | – | – |
| Nc1ncnn2cc(C(=O)NC3CC3)c(-c3ccc(NC(=O)Nc4cc(C(F)(F)F)ccn4)cc3)c12 [Example 82, 4-amino-N-cyclopropyl-5-{4-[({[4-(trifluoromethyl)pyridin-2-yl]amino}carbonyl)amino]phenyl}pyrrolo[2,1-f][1,2,4]triazine-6-carboxamide] | < 1.5 | 1.5 to 5 | – | IC50 (MDA-MB-231 cells): > 0.5 µM |
| Nc1ncnn2cc(-c3cnco3)c(-c3ccc(NC(=O)Nc4cc(C(F)(F)F)ccn4)cc3)c12 [Example 156, N-{4-[4-amino-6-(1,3-oxazol-5-yl)pyrrolo[2,1-f][1,2,4]triazin-5-yl]phenyl}-N′-[4-(trifluoromethyl)pyridin-2-yl]urea] | – | < 1.5 | – | IC50 (HCT116 cells): > 0.5 µM; IC50 (MDA-MB-231 cells): < 0.5 µM |
| CCOC(=O)c1cn2ncnc(N)c2c1-c1ccc(NC(=O)Nc2cc(C(F)(F)F)ccc2N2CCOCC2)cc1 [Example 27, ethyl 4-amino-5-{4-[({[2-morpholin-4-yl-5-(trifluoromethyl)phenyl]amino}carbonyl)amino]phenyl}pyrrolo[2,1-f][1,2,4]triazine-6-carboxylate] | – | – | > 50 | – |
| CCOC(=O)c1cn2ncnc(N)c2c1-c1ccc(NC(=O)Nc2cc(C(C)(C)C)nn2C)cc1 [Example 49, ethyl 4-amino-5-[4-({[(3-tert-butyl-1-methyl-1H-pyrazol-5-yl)amino]carbonyl}amino)phenyl]pyrrolo[2,1-f][1,2,4]triazine-6-carboxylate] | – | – | > 50 | – |
| CCOC(=O)c1cn2ncnc(N)c2c1-c1ccc(NC(=O)Nc2ccccc2OC(F)(F)F)cc1 [Example 8, ethyl 4-amino-5-{4-[({[2-(trifluoromethoxy)phenyl]amino}carbonyl)amino]phenyl}pyrrolo[2,1-f][1,2,4]triazine-6-carboxylate] | – | – | > 50 | – |
| Cc1cn2ncnc(N)c2c1-c1ccc(NC(=O)Nc2cc(C(F)(F)F)ccc2F)cc1 [Example 85, N-[4-(4-amino-6-methylpyrrolo[2,1-f][1,2,4]triazin-5-yl)phenyl]-N′-[2-fluoro-5-(trifluoromethyl)phenyl]urea] | – | – | < 50 | inhibition at 1 µM [1]: > 50% |
| CCOC(=O)c1cn2ncnc(N)c2c1-c1ccc(NC(=O)Nc2ccc3c(c2)OC(F)(F)O3)cc1 [Example 14, ethyl 4-amino-5-[4-({[(2,2-difluoro-1,3-benzodioxol-5-yl)amino]carbonyl}amino)phenyl]pyrrolo[2,1-f][1,2,4]triazine-6-carboxylate] | – | – | < 50 | inhibition at 1 µM [1]: < 50%; inhibition at 10 µM [1]: > 50% |
| CCOC(=O)c1cn2ncnc(N)c2c1-c1ccc(NC(=O)Nc2ccc3c(cnn3C)c2)cc1 [Example 12] | – | – | > 50 | – |
| CCOC(=O)c1cn2ncnc(N)c2c1-c1ccc(NC(=O)Nc2ccc(Cl)c(Cl)c2)cc1 [Example 18, ethyl 4-amino-S-[4-({[(3,4-dichlorophenyl)amino]carbonyl}amino)phenyl]pyrrolo[2,1-f][1,2,4]triazine-6-carboxylate] | – | – | < 50 | inhibition at 1 µM [1]: < 50%; inhibition at 10 µM [1]: > 50% |
| COCCN(C)C(=O)c1cn2ncnc(N)c2c1-c1ccc(NC(=O)Nc2ccc(F)c(C(F)(F)F)c2)cc1 [Example 84, 4-amino-5-{4-[({[4-fluoro-3-(trifluoromethyl)phenyl]amino}carbonyl)amino]phenyl}-N-(2-methoxyethyl)-N-methylpyrrolo[2,1-f][1,2,4]triazine-6-carboxamide] | – | 5 to 10 | – | – |
| CC(C)(C)NC(=O)c1cn2ncnc(N)c2c1-c1ccc(NC(=O)Nc2cc(C(F)(F)F)ccc2F)cc1 [Example 75, 4-amino-N-(tert-butyl)-5-{4-[({[2-fluoro-5-(trifluoromethyl)phenyl]amino}carbonyl)amino]phenyl}pyrrolo[2,1-f][1,2,4]triazine-6-carboxamide] | – | – | < 50 | inhibition at 1 µM [1]: > 50% |

More lines, main results first:

| IC50 (MDA-MB-231 cells; bounds given in μM) [µM] | IC50 (HCT116 cells; bounds given in μM) [µM] | Compound | inhibition at 0.1 µM [1] [%] | further results |
| --- | --- | --- | --- | --- |
| 1.5 to 5 | – | CCOC(=O)c1coc(-c2cn3ncnc(N)c3c2-c2ccc(NC(=O)Nc3cc(C(F)(F)F)ccc3F)cc2)n1 [Example 237, ethyl 2-(4-amino-5-{4-[({[2-fluoro-5-(trifluoromethyl)phenyl]amino}carbonyl)amino]phenyl}pyrrolo[2,1-f][1,2,4]triazin-6-yl)-1,3-oxazole-4-carboxylate] | – | IC50 (HCT116 cells): < 0.5 µM |
| < 1.5 | – | Nc1ncnn2cc(-c3ncco3)c(-c3ccc(NC(=O)Nc4cc(C(F)(F)F)ccn4)cc3)c12 [Example 235, N-{4-[4-amino-6-(1,3-oxazol-2-yl)pyrrolo[2,1-f][1,2,4]triazin-5-yl]phenyl}-N′-[4-(trifluoromethyl)pyridin-2-yl]urea] | – | IC50 (HCT116 cells): < 0.5 µM; IC50 (MDA-MB-231 cells): > 0.5 µM |
| 1.5 to 5 | 1.5 to 5 | Nc1ncnn2cc(CN3CCOCC3)c(-c3ccc(NC(=O)Nc4cc(C(F)(F)F)ccn4)cc3)c12 [Example 225, N-{4-[4-amino-6-(morpholin-4-ylmethyl)pyrrolo[2,1-f][1,2,4]triazin-5-yl]phenyl}-N′-[4-(trifluoromethyl)pyridin-2-yl]urea] | – | – |
| < 1.5 | – | Nc1ncnn2cc(CO)c(-c3ccc(NC(=O)Nc4cc(C(F)(F)F)ccc4F)c(F)c3)c12 [Example 251, N-{4-[4-amino-6-(hydroxymethyl)pyrrolo[2,1-f][1,2,4]triazin-5-yl]-2-fluorophenyl}-N′-[2-fluoro-5-(trifluoromethyl)phenyl]urea] | – | IC50 (MDA-MB-231 cells): > 0.5 µM |
| 1.5 to 5 | 1.5 to 5 | COCc1cn2ncnc(N)c2c1-c1ccc(NC(=O)Nc2cc(C(F)(F)F)ccc2F)c(F)c1 [Example 254, N-{4-[4-amino-6-(methoxymethyl)pyrrolo[2,1-f][1,2,4]triazin-5-yl]-2-fluorophenyl}-N′-[2-fluoro-5-(trifluoromethyl)phenyl]urea] | – | – |
| 1.5 to 5 | 1.5 to 5 | CCOC(=O)c1coc(-c2cn3ncnc(N)c3c2-c2ccc(NC(=O)Nc3cc(C(F)(F)F)ccn3)cc2)n1 [Example 232, ethyl 2-(4-amino-5-{4-[({[4-(trifluoromethyl)pyridin-2-yl]amino}carbonyl)amino]phenyl}pyrrolo[2,1-f][1,2,4]triazin-6-yl)-1,3-oxazole-4-carboxylate] | – | – |
| < 1.5 | 1.5 to 5 | N#CCc1cn2ncnc(N)c2c1-c1ccc(NC(=O)Nc2cc(C(F)(F)F)ccn2)c(F)c1 [Example 255] | – | IC50 (MDA-MB-231 cells): > 0.5 µM |
